How the values were obtained:
Assay type in all cases: cell-based
NCI-N87 cells = experiment: NCI-N87 Cell Growth Inhibition Test (MTT Assay); settings: Homo sapiens, 72 h incubation
Experimental: NCI-N87 Cell Growth Inhibition Test (MTT Assay)
1. Cell strains: NCI-N87 (human gastric carcinoma cell strains);
(§1) 1. A plate (10 cm) of cells in logarithmic growth phase normally cultured was collected;
2. The culture solution was sucked out. The plate was washed wtih 5 ml of PBS 1-2 times;
(§2) 3. PBS was sucked out. 1.5 ml of 0.25% pancreatin was added to infiltrate the cells for 1 min;
4. The pancreatin was sucked out. The culture plate was placed in an incubator. Digestion was carried out for about 12 min at 37° C.;
(§3) 5. 4.5 ml of complete culture solution was added to the culture plate to stop the digestion. The cells were carefully scoured with micropipette (1 ml) to give a uniform cell suspension. The suspension was implanted into a 96-well cell culture disc by 17000 cells/100 μl per well. The culture plate was incubated overnight under 5% CO2 at 37° C. In day 2, 100 μl of culture solution comprising a compound was added in each well, and further incubated for 72 h under 5% CO2 at 37° C.
(§4) 6. The culture solution was sucked out;
(§5) 7. 100 μl of serum-free culture solution containing 0.5 mg/ml MTT was added in each well, and incubated for 3 h;
(§6) 8. The culture solution was carefully sucked out;
(§7) 9. 100 μl of DMSO was added in each welland vibrated to dissolve;
(§8) 10. OD values were determined at 490 nM.
1. Calculation of Rrelative Inhibition Ratio The inhibition ratio of a compound on cell growth=(PC−n)/(PC−NC)×100%
(§9) IC50: Concentration of a compound where inhibition ratio was 50%. IC50 values were fitted with Origin7.5.

Sk-Br-3 cells = experiment: Sk-Br-3 Cell Growth Inhibition Test (SRB Assay); settings: Homo sapiens, 91 h incubation
Experimental: Sk-Br-3 Cell Growth Inhibition Test (SRB Assay)
1. Cell strains: Sk-Br-3 (human breast cancer cell strains);
2. SRB: available from Sigmaaldrich, goods number: S9012, lot number: 047K3751. SRB was reserved at the room temperature. 0.4% (w/v) of working solution was formulated with 1% of glacial acetic acid. The solution was reserved at 4° C.; anti-tumor compounds; DMSO
Culture medium: 90% DMEM+10% FBS;
1. A plate (10 cm) of cells in logarithmic growth phase normally cultured was collected. The culture solution was sucked out. The plate was washed with 5 mL of PBS 1-2 times;
2. PBS was sucked out. […] of 0.25% pancreatin was added to infiltrate the cells for 30 s;
3. The pancreatin was sucked out. The culture plate was placed in an incubator. Digestion was carried out for about 1.5-2 min at 37° C.;
4. 4 mL of complete culture solution was added to the culture plate to stop the digestion. The cells were carefully scoured with micropipette (1 ml) to give a uniform single cell suspension;
5. Cell suspension was counted. The suspension was diluted to 1×10^5/ml. The resulting suspension was developed uniformly on a plate by 10000 cells/100 μl per well. The culture plate was incubated overnight under 5% CO2 at 37° C. In day 2, 100 μl of culture solution comprising a compound was added in each well, and further incubated for 91 h under 5% CO2 at 37° C.
6. The culture solution was sucked out. 100 uL of TCA fixed cells which were diluted to 10% were added to each well. The plate was kept in a refrigerator for 1 h at 4° C.
7. TCA stationary liquid was sucked out. Each well was washed with 150 μL of ddH2O five times;
8. After the stationary liquid was cleansed, the plate was dried in the air at the room temperature;
9. 60 μL of SRB staining solution was added in each well. The well was stained for 15 min at the room temperature;
10. The SRB staining solution was sucked out. Each well was washed with 150 μL of 1% glacial acetic acid five times;
11. After the SRB staining solution was cleansed, the plate was dried in the air at the room temperature;
12. 100 μL of 10 mM Tris was added in each well. The plate was vibrated to dissolve out SRB;
13. OD values were determined at 570 nM.
To: OD values of the starting content of cells when the cells were developed on a plate;
PC: OD values of cells after normal growth in control wells without a compound;
Ti: OD values of cells after growth in test wells with a compound;
NC: Background OD values of blank well without a compound and cells
Therefore: Ratio of cells in test wells to normal wells (% of control cell growth)=(Ti−To)/(PC−To)×100%
Ratio GI50 was concentration of a compound at the point of 50%.
Therefore: Ratio of killed cells to inoculated cells (% of killed cells)=(Ti−To)/(To−NC)×100%
LC50 was concentration point of a compound when half of the starting inoculated concentration was reached.
Concentration of a compound at this point is defined as TGI (total growth inhibition).

AsPC-1 cells = experiment: AsPC-1 Cell Growth Inhibition Test (MTT Assay); settings: Homo sapiens, ASPC1, 72 h incubation
Experimental: AsPC-1 Cell Growth Inhibition Test (MTT Assay)
Cell strains: AsPC-1 (human pancreatic cancer cell strains);
as §1
2. The culture solution was sucked out. The plate was washed with 5 ml of PBS 1-2 times;
as §2
4. The pancreatin was sucked out. The culture plate was placed in an incubator. Digestion was carried out for about 7.5 min at 37° C.;
as §3, with “plate” for “disc”, “8000” for “17000”
as §4, §5, §6, §7, §8
1. Calculation of Relative Inhibition Ratio The inhibition ratio of a compound on cell growth=(PC−n)/(PC−NC)×100%
as §9

NCI-H460 cells = experiment: NCI-H460 Cell Growth Inhibition Test (MTT Assay); settings: Homo sapiens, 72 h incubation
In short: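 Cells seeded at 2500 per well, left overnight, then exposed to compound for 72 h at 37 °C, 5% CO2. Viability by MTT (0.5 mg/ml, 3 h), DMSO-dissolved, OD 490 nm; inhibition ratio = (PC−n)/(PC−NC)×100%, IC50 from curve fit.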

SMILES | IC50 (AsPC-1 cells) | IC50 (NCI-H460 cells) | IC50 (NCI-N87 cells) | GI50 (Sk-Br-3 cells)
C#Cc1cccc(Nc2c(C#N)cnc3cc(O[C@H]4CCOC4)c(NC(=O)/C=C/CN4CCCCC4)cc23)c1 [Example 144, (S,E)-N-(3-CYANO-4-(3-ETHYNYLPHENYLAMINO)-7-(TETRAHYDROFURAN-3-YL-OXY)QUINOLIN-6-YL)-4-(PIPERIDIN-1-YL)-BUT-2-ENAMIDE] | – | – | 98 nM | 202 nM
N#Cc1cnc2cc(O[C@H]3CCOC3)c(NC(=O)/C=C/CN3CCOCC3)cc2c1Nc1ccc(OCc2ccccn2)c(Cl)c1 [Example 152, (S,E)-N-(4-(3-CHLORO-4-(PYRIDIN-2-YL-METHOXY)PHENYLAMINO)-3-CYANO-7-(TETRAHYDROFURAN-3-YL-OXY)QUINOLIN-6-YL)-4-(MORPHOLIN-4-YL)-BUT-2-ENAMIDE] | – | – | 20 nM | 19 nM
C#Cc1cccc(Nc2c(C#N)cnc3cc(O[C@H]4CCOC4)c(NC(=O)/C=C/CN4CCOCC4)cc23)c1 [Example 145, (S,E)-N-(3-CYANO-4-(3-ETHYNYLPHENYLAMINO)-7-(TETRAHYDROFURAN-3-YL-OXY)QUINOLIN-6-YL)-4-(MORPHOLIN-4-YL)-BUT-2-ENAMIDE] | – | – | 346 nM | 831 nM
CC(C)(C)NC/C=C/C(=O)Nc1cc2c(Nc3ccc(OCc4ccccn4)c(Cl)c3)c(C#N)cnc2cc1O[C@H]1CCOC1 [Example 153, (S,E)-N-(4-(3-CHLORO-4-(PYRIDIN-2-YL-METHOXY)PHENYLAMINO)-3-CYANO-7-(TETRAHYDROFURAN-3-YL-OXY)QUINOLIN-6-YL)-4-(TERT-BUTYLAMINO)-BUT-2-ENAMIDE] | – | – | 15 nM | 6.8 nM
C#Cc1cccc(Nc2c(C#N)cnc3cc(O[C@H]4CCOC4)c(NC(=O)/C=C/CN(CC)CC)cc23)c1 [Example 143, (S,E)-N-(3-CYANO-4-(3-ETHYNYLPHENYLAMINO)-7-(TETRAHYDROFURAN-3-YL-OXY)QUINOLIN-6-YL)-4-(DIETHYLAMINO)-BUT-2-ENAMIDE] | – | – | 89 nM | 231 nM
C#Cc1cccc(Nc2c(C#N)cnc3cc(O[C@H]4CCOC4)c(NC(=O)/C=C/CN(C)Cc4ccccc4)cc23)c1 [Example 149, (S,E)-N-(3-CYANO-4-(3-ETHYNYLPHENYLAMINO)-7-(TETRAHYDROFURAN-3-YL-OXY)QUINOLIN-6-YL)-4-(N-METHYLBENZYLAMINO)-BUT-2-ENAMIDE] | – | – | 111 nM | 644 nM
C#Cc1cccc(Nc2c(C#N)cnc3cc(O[C@H]4CCOC4)c(NC(=O)/C=C/CNC(C)(C)C)cc23)c1 [Example 146, (S,E)-N-(3-CYANO-4-(3-ETHYNYLPHENYLAMINO)-7-(TETRAHYDROFURAN-3-YL-OXY)QUINOLIN-6-YL)-4-(TERT-BUTYLAIMINO)-BUT-2-ENAMIDE] | – | – | 189 nM | 823 nM

Now from value to molecule, other results behind:

IC50 (AsPC-1 cells) | IC50 (NCI-H460 cells) | SMILES | IC50 (NCI-N87 cells) | GI50 (Sk-Br-3 cells)
1200 nM | 970 nM | CN(C)C/C=C/C(=O)Nc1cc2c(Nc3ccc(OCc4ccccc4)c(Cl)c3)c(C#N)cnc2cc1OC1CCOC1 (centres unmarked) [Example 12, (E)-N-(4-(4-(BENZYLOXY)-3-CHLOROPHENYLAMINO)-3-CYANO-7-(TETRAHYDROFURAN-3-YL-OXY)QUINOLIN-6-YL)-4-(DIMETHYLAMINO)-BUT-2-ENAMIDE] | 6.1 nM | –
– | 1200 nM | C#Cc1cccc(Nc2c(C#N)cnc3cc(OC4CCOC4)c(NC(=O)/C=C/CN(C)C)cc23)c1 (centres unmarked) [Example 5, (E)-N-(3-CYANO-4-(3-ETHYNYLPHENYLAMINO)-7-(TETRAHYDROFURAN-3-YL-OXY)QUINOLIN-6-YL)-4-(DIMETHYLAMINO)-BUT-2-ENAMIDE] | 22 nM | 24 nM
– | 2700 nM | CN(C)C/C=C/C(=O)Nc1cc2c(Nc3ccc(OCc4ccccn4)c(Cl)c3)c(C#N)cnc2cc1OC1CCOC1 (centres unmarked) [Example 21, (E)-N-(4-(3-CHLORO-4-(PYRIDIN-2-YL-METHOXY)PHENYLAMINO)-3-CYANO-7-(TETRAHYDROFURAN-3-YL-OXY)QUINOLIN-6-YL)-4-(DIMETHYLAMINO)-BUT-2-ENAMIDE] | 6.8 nM | 4.1 nM
– | 2900 nM | C#Cc1cccc(Nc2c(C#N)cnc3cc(O[C@@H]4CCOC4)c(NC(=O)/C=C/CN(C)C)cc23)c1 [Example 141, (R,E)-N-(3-CYANO-4-(3-ETHYNYLPHENYLAMINO)-7-(TETRAHYDROFURAN-3-YL-OXY)QUINOLIN-6-YL)-4-(DIMETHYLAMINO)-BUT-2-ENAMIDE] | 32 nM | 39 nM
422 nM | – | CN(C)C/C=C/C(=O)Nc1cc2c(Nc3ccc(OCc4ccccn4)c(Cl)c3)c(C#N)cnc2cc1O[C@@H]1CCOC1 [Example 139, (R,E)-N-(4-(3-CHLORO-4-(PYRIDIN-2-YL-METHOXY)PHENYLAMINO)-3-CYANO-7-(TETRAHYDROFURAN-3-YL-OXY)QUINOLIN-6-YL)-4-(DIMETHYLAMINO)-BUT-2-ENAMIDE] | 7.2 nM | 5.2 nM
– | 940 nM | CN(C)C/C=C/C(=O)Nc1cc2c(Nc3cccc(Br)c3)c(C#N)cnc2cc1OC1CCOC1 (centres unmarked) [Example 7, (E)-N-(4-(3-BROMOPHENYLAMINO)-3-CYANO-7-(TETRAHYDROFURAN-3-YL-OXY)QUINOLIN-6-YL)-4-(DIMETHYLAMINO)-BUT-2-ENAMIDE] | 113 nM | 213 nM
895 nM | – | CCN(CC)C/C=C/C(=O)Nc1cc2c(Nc3ccc(OCc4ccccn4)c(Cl)c3)c(C#N)cnc2cc1O[C@H]1CCOC1 [Example 150, (S,E)-N-(4-(3-CHLORO-4-(PYRIDIN-2-YL-METHOXY)PHENYLAMINO)-3-CYANO-7-(TETRAHYDROFURAN-3-YL-OXY)QUINOLIN-6-YL)-4-(DIETHYLAMINO)-BUT-2-ENAMIDE] | 6.6 nM | 11 nM
– | 1100 nM | C#Cc1cccc(Nc2c(C#N)cnc3cc(O[C@H]4CCOC4)c(NC(=O)/C=C/CN(C)C)cc23)c1 [Example 140, (S,E)-N-(3-CYANO-4-(3-ETHYNYLPHENYLAMINO)-7-(TETRAHYDROFURAN-3-YL-OXY)QUINOLIN-6-YL)-4-(DIMETHYLAMINO)-BUT-2-ENAMIDE] | 15 nM | 22 nM
810 nM | – | N#Cc1cnc2cc(O[C@H]3CCOC3)c(NC(=O)/C=C/CN3CCCCC3)cc2c1Nc1ccc(OCc2ccccn2)c(Cl)c1 [Example 151, (S,E)-N-(4-(3-CHLORO-4-(PYRIDIN-2-YL-METHOXY)PHENYLAMINO)-3-CYANO-7-(TETRAHYDROFURAN-3-YL-OXY)QUINOLIN-6-YL)-4-(PIPERIDIN-1-YL)-BUT-2-ENAMIDE] | 16 nM | 17 nM
